In patent US20050238734A1, “Detection of nitrosylated proteins” (University of Vermont and State Agricultural College, priority 2004, published 2005):

What was measured:
C10 cells = assay: In situ detection of S-nitrosylated proteins in intact cells (biotin derivatization, streptavidin-FITC, confocal microscopy); format: cell-based, mouse
Description: A line of spontaneously transformed mouse lung alveolar type II epithelial cells (C10) was used in some experiments, as described below. C10 cells were cultured in CMRL1066 medium containing 10% fetal bovine serum (FBS, GIBCO). In experiments involving microscopic analysis, the cells were grown on glass cover slips. At about one hour prior to exposure to a test agent, the medium was switched to phenol red free DMEM/F12 containing 0.5% FBS. Some cells were exposed to S-nitroso-glutathione (GSNO) or S-nitroso-N-acetyl penicillamine (SNAP) for about 1 hour, in the presence of an equimolar concentration of freshly prepared L-cysteine. To monitor S-nitrosylation in response to NOS2 activation, the cells were treated with 10 ng/ml TNF alpha (TNFα) and 100 U/ml interferon gamma (IFNγ), for about 24 hours. Incubation with L-N-monomethyl arginine (L-NMMA) for about 16 hours was used to inhibit endogenous NO production and D-NMMA (D-N-monomethyl arginine) was used as a control. Nuclear export was blocked by leptomycin B (5 ng/ml, exposure for about 12 hours). All experiments were performed in duplicate and were repeated at least three times.
To evaluate the localization of S-nitrosylated proteins in intact cells, the biotin derivatization method described above was used in combination with fluorophore labeling and visualized using confocal microscopy. Cells grown on cover slips were rinsed with PBS containing 0.1 mM EDTA and 0.01 mM neocuproine, and fixed in 4% PFA (paraformaldehyde) for 20 minutes at RT. The cells were permeabilized, and protein SH groups were blocked using HEN buffer containing 2.5% SDS, 0.5% CHAPS, and 20 mM MMTS (methylmethanethiosulfonate) for 20 min at 55° C. with constant shaking. After removal of MMTS, the cells were incubated with 1 mM sodium ascorbate and 0.4 mM biotin-HPDP (N-[6-(biotinamido)hexyl]-3′-(2′-pyridyldithio)propionamide) for about an hour at RT, and the cover slips were then incubated overnight with streptavidin-FITC at 4° C. Blocking was performed using 20 mM NEM for 30 minutes at 4° C., followed by incubation with 0.05 mM MPB and 1 mM sodium ascorbate for 1 hour at RT. The nuclei were stained with 10 microgram/ml PI (propidium iodide) for 30 minutes at RT. The cells were analyzed by confocal microscopy (magnification 40×) using an Olympus BX50 microscope coupled to a Bio-Rad (Hercules Calif.) MRC 1024 confocal scanning laser microscope system. Control experiments were also performed in which blocking of SH groups was omitted, or in which 100 micromolar HgCl2 was added prior to blocking of SH groups with MMTS or NEM. To assess the contribution of endogenous biotinylated proteins, the biotin-label was omitted in some control cover slips. All manipulations were performed in the dark. […]

IKKβ [1] = target: T1, IKKβ (Homo sapiens, UniProt O14920); assay: SNO content of immunopurified IKKβ by chemiluminescence; format: cell-based; conditions: Jurkat T cells exposed to L-CSNO and TNFα
T1 construct: IKKβ was immunopurified from TNFα-stimulated Jurkat T cells treated with SNO; endogenous in cells; host or cells: Jurkat T cells
T1 sequence (O14920 1-756): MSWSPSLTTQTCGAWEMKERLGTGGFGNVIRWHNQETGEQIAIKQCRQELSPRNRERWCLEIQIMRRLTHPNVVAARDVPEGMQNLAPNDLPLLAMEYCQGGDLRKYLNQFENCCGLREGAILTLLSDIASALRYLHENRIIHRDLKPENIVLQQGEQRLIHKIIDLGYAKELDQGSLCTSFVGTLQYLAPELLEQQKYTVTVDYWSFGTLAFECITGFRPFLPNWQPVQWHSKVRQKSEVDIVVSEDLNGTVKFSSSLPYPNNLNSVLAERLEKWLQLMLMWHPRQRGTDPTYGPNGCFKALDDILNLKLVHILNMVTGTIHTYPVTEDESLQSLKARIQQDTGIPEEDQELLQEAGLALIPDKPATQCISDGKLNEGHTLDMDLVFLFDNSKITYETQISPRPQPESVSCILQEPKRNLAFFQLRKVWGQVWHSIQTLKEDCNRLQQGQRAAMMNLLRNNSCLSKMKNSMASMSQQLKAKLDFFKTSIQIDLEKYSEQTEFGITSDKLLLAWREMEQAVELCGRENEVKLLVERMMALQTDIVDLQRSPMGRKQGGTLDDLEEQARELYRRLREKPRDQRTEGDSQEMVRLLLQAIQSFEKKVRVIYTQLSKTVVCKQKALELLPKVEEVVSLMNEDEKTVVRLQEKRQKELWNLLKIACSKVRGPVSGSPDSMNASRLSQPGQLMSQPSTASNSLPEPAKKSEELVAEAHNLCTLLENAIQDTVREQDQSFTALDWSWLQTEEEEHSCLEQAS
Description: The total cellular SNO concentration (protein-bound plus free) was measured in lysates of cells treated with SNO in presence or absence of L-or D-cys. After 3 washes with PBS, the cells were lysed in the same buffer as was used for the biotin switch method. […] The amount of NO released from samples was estimated from a standard curve generated by injection of L-CSNO stock solutions. IKKβ was immunoprecipitated from Jurkat T cell lysates, using a monoclonal IKKβ antibody and protein G-agarose beads. After washing the immunoprecipitates 3 times with HEN buffer containing 50 mM NaCl to minimize co-associating proteins, the antigen-antibody complexes were removed from the beads by three 10 min incubations in 50 μl of 100 mM glycine pH 3.0 at 4° C. The eluates were treated with 0.6% sulfanilamide prior to the assessment of the SNO content via chemiluminescence, as described before. As a control, some lysates or immunoprecipitates were treated with 4.4 mM HgCl2 for 10 min at RT, followed by 20 min incubation at 4° C., and 10 min incubation with sulfanilamide at RT. To confirm that IKKβ was the predominant protein immunoprecipitated under these conditions, Laemmli sample buffer was added to the immunoprecipitate, samples were boiled, and evaluated on a silver-stained gel. All experiments were repeated at least two times and similar results were obtained. […]

wt HA-IKKβ = target: T2, wt HA-IKKβ (Homo sapiens, UniProt O14920); assay: TNFα-stimulated kinase activity of transfected wt HA-IKKβ in C10 cells; format: cell-based; conditions: TNFα-stimulated enzymatic activity
T2 construct: expressed in transfected cells; host or cells: C10 mouse lung epithelial cells; plasmid a gift of Dr. Michael Karin
T2 sequence (O14920 1-756): T1 sequence (O14920 1-756)
Description: The cells were exposed to test agents and at indicated times, transferred to ice, washed twice with cold PBS, and lysed in buffer containing 50 mM HEPES, 150 mM NaCl, 1 mM EDTA, 2 mM MgCl2, 10 mM Na3VO4, 1 mM phenylmethylsulfonyl fluoride, 0.1% Nonidet P-40, 10 μg/ml leupeptin, 1% aprotinin, 250 μM DTT and 100 μM NaF. The lysates were cleared by centrifugation at 14,000 rpm, 4° C. for 10 min. Protein concentrations were determined and the IKK complex was immunoprecipitated with an IKKγ antibody (Santa Cruz) at 4° C. for 1.5 h using protein G agarose beads. The precipitates were washed once with lysis buffer and twice with kinase buffer (20 mM HEPES, 20 mM β-glycerolphosphate, 1 mM MnCl2, 5 mM MgCl2, 2 mM NaF and 250 μM DTT). The kinase reaction was performed using 1 μg glutathione-S transferase (GST)-IκBα as a substrate, provided by Dr. Rosa Ten (Mayo Clinic, Rochester, Minn.), and 5 μCi γ^32P-adenosine triphosphate at 30° C. for 30 min. Kinase assays were performed in presence of 250 μM DTT, the minimal concentration necessary in order to maintain maximal TNFα-stimulated activity. The reactions were stopped by the addition of 2× Laemmli sample buffer. […] In separate experiments, the immunoprecipitated IKK complex or JNK1 from TNFα-stimulated cells was exposed to SNAP or GSNO for 15 min in lysis buffer in vitro prior to assessment of kinase activity. […]

IKKβ [2] = target: T1, IKKβ; assay: Biotin derivatization (biotin switch) of IKKβ in Jurkat T cells; format: cell-based
Description: The detection of S-nitrosylated proteins was performed via a biotin switch method as follows. Following treatments, the cells were rinsed 2 times with PBS containing 0.1 mM EDTA and 0.01 mM neocuproine and lysed in HEN buffer (25 mM HEPES, pH 7.7, 0.1 mM EDTA, 0.01 mM neocuproine) containing 0.5% CHAPS, 0.1% SDS and 20 mM N-ethylmaleimide (NEM) at 4° C. for 30 min in order to block free thiols. The lysates were cleared by centrifugation at 14,000 g, 4° C. for 10 min and excess NEM was removed by protein precipitation using cold acetone. The protein pellets were resuspended in HENS buffer (HEN 1% SDS), and the SNO bonds were decomposed by adding 20 mM sodium ascorbate. The resulting free thiols were reacted with 0.05 mM sulfhydryl-specific biotinylating agent, N-(3-malemidylpropionyl)biocytin (MPB, Molecular Probes) for 30 min at room temperature, resulting in biotinylation of SNO. […] Biotinylated IKKβ was detected on the membrane using horseradish peroxidase-linked streptavidin. […]
A biotin derivatization method was also used to assess whether the IKKβ subunit is directly targeted by S-nitrosylation. […] IKKβ was subsequently immunoprecipitated from the lysates and its biotinylation was assessed using streptavidin-HRP on a western blot. […]

RelA (p65) = RelA (p65) immunostaining, cytoplasmic versus nuclear localization; format: cell-based, mouse
Description: FIGS. 4G and 4H illustrates an assessment of the presence of cytoplasmic protein. C10 cells were mock-treated (sham) (FIG. 4G) or stimulated with TNF alpha for 30 minutes, and submitted to the biotinylation protocols similar to those described above with respect to FIG. 1. RelA (p65) was detected using specific antibodies (Santa Cruz).
FIGS. 6A and 6C illustrate cells that were incubated with leptomycin B (5 ng/ml) for about 12 hours, followed by biotin derivatization, incubation with streptavidin-FITC, and analysis by confocal microscopy. […] These findings thus support the notion that S-nitrosylation occurs in proteins that are regulated by nuclear trafficking.
To ensure that the cytoplasmic targets were still present after this procedure, the presence of RelA was evaluated in sham or TNF alpha-treated cells. RelA, a subunit of the transcription factor, nuclear factor kappa B, is normally present in the cytoplasm and is translocated into the nucleus upon exposure to TNF alpha. […] In fact, increased S-nitrosylation of cytoplasmic proteins was observed after induction of NOS2 activity.

For `OO` [H2O2, hydrogen peroxide], the “staining pattern (biotinylation)” value (C10 cells; 500 micromolar, 15 minutes) was “failed to alter”.
`N[C@@H](CSN=O)C(=O)O` [L-CSNO] was tested, and the “SNO content of IKKβ” value (IKKβ [1]) was “marked increase”, the “activity of wt HA-IKKβ” value (wt HA-IKKβ) was “inhibited” and the “S-nitrosylation of IKKβ (biotinylation)” value (IKKβ [2]) was “increase”.
With `CC(=O)N[C@H](C(=O)O)C(C)(C)SN=O` [SNAP, S-nitroso-N-acetyl penicillamine] the “biotinylation (S-nitrosylated proteins) in intact cells” value (C10 cells; 1 mM, 1 hour) was “enhanced”.
`CCC(=C/[C@H](C)C/C=C/C(C)=C/[C@@H](C)C(=O)[C@@H](C)[C@H](O)[C@@H](C)C/C(C)=C/C(=O)O)/C=C/[C@@H]1OC(=O)C=C[C@@H]1C` [leptomycin B] was tested, and the “biotinylation in the nuclear compartment” value (C10 cells; 5 ng/ml, about 12 hours) was “enhanced” and the “nuclear sequestration of RelA” value (RelA (p65); 5 ng/ml, about 12 hours) was “enhanced”.
For TNF alpha, the “S-nitrosylation of IKKβ (biotinylation)” value (IKKβ [2]) was “decreased” and the “RelA presence in nucleus” value (RelA (p65); 30 minutes, dual staining with PI) was “enhanced nuclear presence”.
